Common to all, as to experiment: relative viability (nuclei count vs DMSO), 5 days (fraction); higher = more cells survive
Compound in assay [1]: CN[C@@H]1C[C@H]2O[C@@](C)([C@@H]1OC)n1c3ccccc3c3c4c(c5c6ccccc6n2c5c31)C(=O)NC4 [Staurosporine] + Nc1nc2[nH]cc(CCc3ccc(C(=O)N[C@@H](CCC(=O)O)C(=O)O)cc3)c2c(=O)[nH]1 [Pemetrexed] (partner 0.2 µM)
The procedure, abridged: (§1)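 Cells from lung cancer lines were seeded into 1536-well plates and, one day later, dosed by pin tool. Treatments were either a single drug or a fixed dose of an anchor drug with five library-drug doses (not always all listed) in √10 steps. After 5 days, nuclei were stained in a one-step fixation (final 0.05% Triton X-100, 1% formaldehyde, 1 ug/ml Hoechst) and counted on 4× images, and relative viability is the treated-to-vehicle nuclei ratio, as the median of duplicate plates.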

Compound in assay [2]: CN[C@@H]1C[C@H]2O[C@@](C)([C@@H]1OC)n1c3ccccc3c3c4c(c5c6ccccc6n2c5c31)C(=O)NC4 [Staurosporine] + CC(=O)Nc1cccc(-n2c(=O)n(C3CC3)c(=O)c3c(Nc4ccc(I)cc4F)n(C)c(=O)c(C)c32)c1 [Trametinib] (partner 0.02 µM)
The procedure, abridged: as §1

Compound in the assay “Sulindac + Tozasertib”: CC1=C(CC(=O)O)c2cc(F)ccc2/C1=C\c1ccc([S+](C)[O-])cc1 [Sulindac] + Cc1cc(Nc2cc(N3CCN(C)CC3)nc(Sc3ccc(NC(=O)C4CC4)cc3)n2)n[nH]1 [Tozasertib] (partner 0.1 µM)
The procedure, abridged: as §1

Compound in assay [3]: O=c1[nH]cc(F)c(=O)[nH]1 [5-Fluorouracil] + Cc1nc(Nc2ncc(C(=O)Nc3c(C)cccc3Cl)s2)cc(N2CCN(CCO)CC2)n1 [Dasatinib] (partner 0.075 µM)
Put shortly:
as §1

For EKVX, the relative viability worked out at 0.197 in assay [1] (first compound 0.005 µM); 0.139 in assay [1] (first compound 0.01581 µM); 0.189 in assay [1] (first compound 0.05 µM); 0.255 in assay [1] (first compound 0.1581 µM); 0.141 in assay [1] (first compound 0.5 µM); 0.224 in assay [2] (first compound 0.005 µM). Besides, the relative viability is 0.184 in assay [2] (first compound 0.01581 µM); 0.143 in assay [2] (first compound 0.05 µM); 0.169 in assay [2] (first compound 0.1581 µM); 0.12 in assay [2] (first compound 0.5 µM); 0.417 with Sulindac + Tozasertib (first compound 0.08 µM); 0.334 with Sulindac + Tozasertib (first compound 0.253 µM). The relative viability with Sulindac + Tozasertib (first compound 0.8 µM) was determined as 0.345; in the assay with Sulindac + Tozasertib (first compound 2.53 µM), 0.434; with Sulindac + Tozasertib (first compound 8 µM), 0.407.
In the case of EMC-BAC-2, the relative viability was 0.362 in assay [1] (first compound 0.005 µM); 0.273 in assay [1] (first compound 0.01581 µM); 0.258 in assay [1] (first compound 0.05 µM); 0.255 in assay [1] (first compound 0.1581 µM); 0.224 in assay [1] (first compound 0.5 µM); 0.42 in assay [2] (first compound 0.005 µM). Also, the relative viability in assay [2] (first compound 0.01581 µM) amounted to 0.225; in assay [2] (first compound 0.05 µM) it was 0.219; in assay [2] (first compound 0.1581 µM), 0.253; with Sulindac + Tozasertib (first compound 0.08 µM), 0.269; with Sulindac + Tozasertib (first compound 0.253 µM), 0.298; in the assay with Sulindac + Tozasertib (first compound 0.8 µM), 0.287. In addition, the relative viability with Sulindac + Tozasertib (first compound 2.53 µM) turned out to be 0.278; in the assay with Sulindac + Tozasertib (first compound 8 µM), 0.315; in assay [3] (first compound 0.02 µM) it was 0.343; in assay [3] (first compound 0.2 µM) it was 0.332; in assay [3] (first compound 0.6325 µM), 0.368; in assay [3] (first compound 2 µM), 0.35.
As to EPLC-272H, the relative viability is 0.213 in assay [1] (first compound 0.005 µM); 0.13 in assay [1] (first compound 0.01581 µM); 0.146 in assay [1] (first compound 0.05 µM); 0.0971 in assay [1] (first compound 0.1581 µM); 0.0691 in assay [1] (first compound 0.5 µM); 0.291 in assay [2] (first compound 0.005 µM). The relative viability in assay [2] (first compound 0.01581 µM) was 0.15; in assay [2] (first compound 0.05 µM), 0.123; in assay [2] (first compound 0.1581 µM), 0.067; in assay [2] (first compound 0.5 µM), 0.0425; with Sulindac + Tozasertib (first compound 0.08 µM) it was 0.152; with Sulindac + Tozasertib (first compound 0.253 µM), 0.25. Also, the relative viability with Sulindac + Tozasertib (first compound 2.53 µM) stood at 0.25; with Sulindac + Tozasertib (first compound 8 µM), 0.408; in assay [3] (first compound 0.02 µM), 0.271; in assay [3] (first compound 0.2 µM) it was 0.304; in assay [3] (first compound 0.6325 µM) it was 0.234; in assay [3] (first compound 2 µM), 0.129.
For H3255, the relative viability in assay [1] (first compound 0.005 µM) stood at 0.481; in assay [1] (first compound 0.01581 µM), 0.392; in assay [1] (first compound 0.05 µM), 0.305; in assay [1] (first compound 0.1581 µM) it was 0.213; in assay [1] (first compound 0.5 µM) it was 0.135; in assay [2] (first compound 0.005 µM) it was 0.48. Besides, the relative viability was 0.321 in assay [2] (first compound 0.01581 µM); 0.236 in assay [2] (first compound 0.05 µM); 0.197 in assay [2] (first compound 0.1581 µM); 0.141 in assay [2] (first compound 0.5 µM); 0.593 with Sulindac + Tozasertib (first compound 0.08 µM); 0.546 with Sulindac + Tozasertib (first compound 0.253 µM). The relative viability with Sulindac + Tozasertib (first compound 0.8 µM) was 0.413; with Sulindac + Tozasertib (first compound 2.53 µM) it was 0.616; with Sulindac + Tozasertib (first compound 8 µM), 0.619; in assay [3] (first compound 0.02 µM), 0.304; in assay [3] (first compound 0.2 µM) it was 0.5; in assay [3] (first compound 0.6325 µM) it was 0.328. Also, the relative viability in assay [3] (first compound 2 µM) was found to be 0.359.
With HCC-44, the relative viability was found to be 0.629 in assay [1] (first compound 0.005 µM); 0.583 in assay [1] (first compound 0.05 µM); 0.27 in assay [1] (first compound 0.1581 µM); 0.235 in assay [1] (first compound 0.5 µM); 1.04 in assay [2] (first compound 0.005 µM); 0.444 in assay [2] (first compound 0.05 µM). Further, the relative viability in assay [2] (first compound 0.5 µM) came out at 0.322; with Sulindac + Tozasertib (first compound 0.08 µM), 1.08; in the assay with Sulindac + Tozasertib (first compound 0.253 µM), 1.04; in the assay with Sulindac + Tozasertib (first compound 2.53 µM), 0.938; in the assay with Sulindac + Tozasertib (first compound 8 µM) it was 0.981.
For NCI-H727, the relative viability in assay [2] (first compound 0.005 µM) was 0.349; in assay [2] (first compound 0.01581 µM), 0.346; in assay [2] (first compound 0.05 µM), 0.316; in assay [2] (first compound 0.1581 µM) it was 0.267; in assay [2] (first compound 0.5 µM) it was 0.257; with Sulindac + Tozasertib (first compound 0.08 µM) it was 0.609. Moreover, the relative viability is 1.78 in the assay with Sulindac + Tozasertib (first compound 0.253 µM); 0.451 in the assay with Sulindac + Tozasertib (first compound 2.53 µM); 0.795 with Sulindac + Tozasertib (first compound 8 µM); 0.38 in assay [3] (first compound 0.02 µM); 0.395 in assay [3] (first compound 0.2 µM); 0.378 in assay [3] (first compound 0.6325 µM). In addition, in assay [3] (first compound 2 µM), the relative viability amounted to 0.375.
Take NCI-H1563: the relative viability is 0.543 in assay [1] (first compound 0.005 µM); 0.39 in assay [1] (first compound 0.01581 µM); 0.522 in assay [1] (first compound 0.05 µM); 0.45 in assay [1] (first compound 0.1581 µM); 0.41 in assay [1] (first compound 0.5 µM); 0.396 in assay [3] (first compound 0.02 µM). The values for the relative viability in assay [3] (first compound 0.2 µM), in assay [3] (first compound 0.6325 µM) and in assay [3] (first compound 2 µM) were 0.517, 0.423 and 0.483, respectively.
As to NCI-H1623, the relative viability with Sulindac + Tozasertib (first compound 0.08 µM) was 0.392; with Sulindac + Tozasertib (first compound 0.253 µM), 0.458; in the assay with Sulindac + Tozasertib (first compound 0.8 µM), 0.421; with Sulindac + Tozasertib (first compound 2.53 µM), 0.418; with Sulindac + Tozasertib (first compound 8 µM), 0.429; in assay [3] (first compound 0.02 µM), 0.412. In addition, the relative viability in assay [3] (first compound 0.2 µM) was found to be 0.64; in assay [3] (first compound 0.6325 µM), 0.256; in assay [3] (first compound 2 µM), 0.232.
For NCI-H1648, the relative viability in assay [1] (first compound 0.005 µM) worked out at 0.582; in assay [1] (first compound 0.01581 µM), 0.321; in assay [1] (first compound 0.05 µM), 0.344; in assay [1] (first compound 0.1581 µM), 0.325; in assay [1] (first compound 0.5 µM), 0.42; in assay [2] (first compound 0.005 µM) it was 0.586. Further, the relative viability in assay [2] (first compound 0.01581 µM) turned out to be 0.299; in assay [2] (first compound 0.05 µM), 0.0693; in assay [2] (first compound 0.1581 µM) it was 0.25; in assay [2] (first compound 0.5 µM), 0.265; with Sulindac + Tozasertib (first compound 0.08 µM) it was 0.397; in the assay with Sulindac + Tozasertib (first compound 0.253 µM), 0.482. Moreover, the relative viability in the assay with Sulindac + Tozasertib (first compound 0.8 µM) was determined as 0.345; with Sulindac + Tozasertib (first compound 2.53 µM), 0.415; with Sulindac + Tozasertib (first compound 8 µM), 0.389.
As to NCI-H1792, the relative viability in assay [1] (first compound 0.005 µM) turned out to be 0.28; in assay [1] (first compound 0.01581 µM), 0.0706; in assay [1] (first compound 0.05 µM), 0.0856; in assay [1] (first compound 0.1581 µM), 0.056; in assay [1] (first compound 0.5 µM), 0.0352; in assay [2] (first compound 0.005 µM), 0.374. In addition, the relative viability was found to be 0.263 in assay [2] (first compound 0.01581 µM); 0.164 in assay [2] (first compound 0.05 µM); 0.0813 in assay [2] (first compound 0.1581 µM); 0.0466 in assay [2] (first compound 0.5 µM); 0.929 in assay [3] (first compound 0.02 µM); 0.714 in assay [3] (first compound 0.2 µM). For the same cell line, the results for the relative viability in assay [3] (first compound 0.6325 µM) and in assay [3] (first compound 2 µM) were 0.277 and 0.196, respectively.

The values above are taken from the supplement of paper PMC10307832.
